Assay results as given in patent US9802960B2 (MILLENNIUM PHARMACEUTICALS, INC., priority 2014, dated 2017).

What follows are compounds tested against Human VPS34 (Homo sapiens (Human), UniProt Q8NEB9) (assay: Human VPS34 enzyme assay (Adapta TR-FRET)). Details: IC50 range class.
Assay type: biochemical

Sequence of Human VPS34 (Q8NEB9 whole entry): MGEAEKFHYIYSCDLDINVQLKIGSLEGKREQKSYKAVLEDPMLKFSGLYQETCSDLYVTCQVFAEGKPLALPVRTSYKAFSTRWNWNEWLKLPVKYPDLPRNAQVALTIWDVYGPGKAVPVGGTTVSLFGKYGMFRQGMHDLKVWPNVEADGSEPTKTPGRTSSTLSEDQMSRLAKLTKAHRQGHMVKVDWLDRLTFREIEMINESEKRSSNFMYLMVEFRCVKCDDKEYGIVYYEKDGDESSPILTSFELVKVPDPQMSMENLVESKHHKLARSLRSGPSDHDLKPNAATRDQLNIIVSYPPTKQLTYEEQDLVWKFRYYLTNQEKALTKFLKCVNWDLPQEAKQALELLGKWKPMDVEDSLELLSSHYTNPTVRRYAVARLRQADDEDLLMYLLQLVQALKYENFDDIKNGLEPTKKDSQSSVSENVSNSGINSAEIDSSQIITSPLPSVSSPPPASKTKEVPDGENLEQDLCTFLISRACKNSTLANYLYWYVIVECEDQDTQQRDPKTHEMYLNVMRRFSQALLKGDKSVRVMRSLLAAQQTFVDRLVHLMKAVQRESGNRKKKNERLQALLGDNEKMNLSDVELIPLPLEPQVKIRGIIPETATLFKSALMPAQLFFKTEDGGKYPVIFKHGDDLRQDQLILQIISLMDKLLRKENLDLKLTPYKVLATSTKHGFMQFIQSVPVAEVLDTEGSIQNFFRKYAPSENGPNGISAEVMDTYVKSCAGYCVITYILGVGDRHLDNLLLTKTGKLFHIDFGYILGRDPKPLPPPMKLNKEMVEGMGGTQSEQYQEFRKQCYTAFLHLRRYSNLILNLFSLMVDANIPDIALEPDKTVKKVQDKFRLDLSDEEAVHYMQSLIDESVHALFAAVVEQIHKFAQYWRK

SMILES	IC50
Cc1nccc(Nc2cc(-c3cnc(C)c(NS(=O)(=O)c4ccc(F)cc4F)c3)ccn2)n1 [Compound I-291, 2,4-difluoro-N-{6-methyl-2′-[(2-methylpyrimidin-4-yl)amino]-3,4′-bipyridin-5-yl}benzenesulfonamide]	< 10 nM

Same assay, conditions: compound concentration 1.11 μM

SMILES	Percent Inhibition
Cc1c(-c2ccnc(N)c2)cnc(Cl)c1NS(=O)(=O)c1ccc(F)cc1F [Compound I-287, N-(2′-amino-6-chloro-4-methyl-3,4′-bipyridin-5-yl)-2,4-difluorobenzenesulfonamide]	91%

Same assay, conditions: compound concentration 1.11 μM; read-out: Percent Inhibition

SMILES	inhibition at 1.11 µM
Cc1nccc(Nc2cc(-c3cnc(O)c(S(=O)(=O)NC4CCC4)c3)ccn2)n1 [Compound I-279, N-cyclobutyl-6-hydroxy-2′-[(2-methylpyrimidin-4-yl)amino]-3,4′-bipyridine-5-sulfonamide]	93%
Cc1nccc(Nc2cc(-c3cnc(C)c(C(N)=O)c3)ccn2)n1 [Compound I-280, 6-methyl-2′-[(2-methylpyrimidin-4-yl)amino]-3,4′-bipyridine-5-carboxamide]	83%
Cc1ncc(-c2ccnc(N)c2)cc1NS(=O)(=O)N(C)C [Compound I-281, N′-(2′-amino-6-methyl-3,4′-bipyridin-5-yl)-N,N-dimethylsulfuric diamide]	40%
Cc1c(-c2ccnc(Nc3ccncn3)c2)cnc(Cl)c1NS(=O)(=O)c1ccc(F)cc1F [Compound I-282, N-[6-chloro-4-methyl-2′-(pyrimidin-4-ylamino)-3,4′-bipyridin-5-yl]-2,4-difluorobenzenesulfonamide]	94%
CC(=O)Nc1cc(-c2cnc(N(C)C)c(C(=O)NC34CC(C3)C4)c2)ccn1 [Compound I-283, 2′-Acetamido-N-(bicyclo[1.1.1]pent-1-yl)-6-(dimethylamino)-3,4′-bipyridine-5-carboxamide]	> 99%
CN(C)c1ncc(-c2ccnc(Nc3ccncn3)c2)cc1C(=O)N(C)C12CC(C1)C2 [Compound I-284, N-(bicyclo[1.1.1]pent-1-yl)-6-(dimethylamino)-N-methyl-2′-(pyrimidin-4-ylamino)-3,4′-bipyridine-5-carboxamide]	> 99%
Cc1nccc(Nc2cc(-c3cnc(C)c(C(=O)NCC4CC4)c3)ccn2)n1 [Compound I-285, N-(cyclopropylmethyl)-6-methyl-2′-((2-methylpyrimidin-4-yl)amino)-[3,4′-bipyridine]-5-carboxamide]	85%
Cc1nccc(Nc2cc(-c3cnc(C)c(NS(=O)(=O)N(C)C)c3)ccn2)n1 [Compound I-286, N,N-dimethyl-N-{6-methyl-2′-[(2-methylpyrimidin-4-yl)amino]-3,4′-bipyridin-5-yl}sulfuric diamide]	> 99%
Cc1nccc(Nc2cc(-c3cnc(C)c(N4CCCN(C)S4(=O)=O)c3)ccn2)n1 [Compound I-288, 6-methyl-5-(6-methyl-1,1-dioxido-1,2,6-thiadiazinan-2-yl)-N-(2-methylpyrimidin-4-yl)-3,4′-bipyridin-2′-amine]	91%
Cc1nc(Nc2cc(-c3cnc(C)c(NS(=O)(=O)c4ccc(F)cc4F)c3)ccn2)ccc1C#N [Compound I-289, N-{2′-[(5-cyano-6-methylpyridin-2-yl)amino]-6-methyl-3,4′-bipyridin-5-yl}-2,4-difluorobenzene sulfonamide]	> 99%
CC(=O)Nc1cc(-c2cnc(Cl)c(NS(=O)(=O)c3ccc(F)cc3Cl)c2C)ccn1 [Compound I-290, N-(6-chloro-5-{[(2-chloro-4-fluorophenyl)sulfonyl]amino}-4-methyl-3,4′-bipyridin-2′-yl)acetamide]	> 99%
Cc1nccc(Nc2cc(-c3cnc(C)c(NS(=O)(=O)c4ccc(F)cc4F)c3)ccn2)n1 [Compound I-291, 2,4-difluoro-N-{6-methyl-2′-[(2-methylpyrimidin-4-yl)amino]-3,4′-bipyridin-5-yl}benzenesulfonamide]	95%
Cc1ncc(-c2ccnc(Nc3ccnc(C(F)(F)F)n3)c2)cc1C(=O)N1CCC1 [Compound I-292, azetidin-1-yl(6-methyl-2′-{[2-(trifluoromethyl)pyrimidin-4-yl]amino}-3,4′-bipyridin-5-yl)methanone]	99%
Cc1ccnc(Nc2cc(-c3cnc(Cl)c(NS(=O)(=O)c4ccc(F)cc4F)c3C)ccn2)n1 [Compound I-293, N-{6-chloro-4-methyl-2′-[(4-methylpyrimidin-2-yl)amino]-3,4′-bipyridin-5-yl}-2,4-difluorobenzene sulfonamide]	> 99%
Cc1nccc(Nc2cc(-c3cnc(Cl)c(NS(=O)(=O)c4ccc(F)cc4F)c3C)c(F)cn2)n1 [Compound I-294, N-{6-chloro-5′-fluoro-4-methyl-2′-[(2-methylpyrimidin-4-yl)amino]-3,4′-bipyridin-5-yl}-2,4-difluorobenzenesulfonamide]	94%
Cc1nccc(Nc2cc(-c3cnc(Cl)c(NC(=O)c4ccc(F)cc4F)c3C)ccn2)n1 [Compound I-295, N-{6-chloro-4-methyl-2′-[(2-methylpyrimidin-4-yl)amino]-3,4′-bipyridin-5-yl}-2,4-difluorobenzamide]	80%
Cc1c(-c2ccnc(Nc3ccnc(C4CC4)n3)c2)cnc(Cl)c1NS(=O)(=O)c1ccc(F)cc1F [Compound I-296, N-{6-chloro-2′-[(2-cyclopropylpyrimidin-4-yl)amino]-4-methyl-3,4′-bipyridin-5-yl}-2,4-difluorobenzene sulfonamide]	90%
Cc1ncc(-c2ccnc(Nc3ccccn3)c2)cc1NS(=O)(=O)c1ccc(F)cc1F [Compound I-297, 2,4-difluoro-N-[6-methyl-2′-(pyridin-2-ylamino)-3,4′-bipyridin-5-yl]benzenesulfonamide]	> 99%

SMILES	inhibition at 1.11 µM
Nc1ncc(-c2ccnc(Nc3ccncn3)c2)cc1C(=O)NC12CC(C1)C2 [Compound I-298, 6-amino-N-(bicyclo[1.1.1]pent-1-yl)-2′-(pyrimidin-4-ylamino)-3,4′-bipyridine-5-carboxamide]	99%
Cc1nccc(Nc2cc(-c3cnc(Cl)c(NS(=O)(=O)c4ccc(F)cc4F)c3C)ccn2)n1 [Compound I-299, N-{6-chloro-4-methyl-2′-[(2-methylpyrimidin-4-yl)amino]-3,4′-bipyridin-5-yl}-2,4-difluorobenzenesulfonamide]	98%
Cc1c(-c2ccnc(Nc3ncc(C#N)cn3)c2)cnc(Cl)c1NS(=O)(=O)c1ccc(F)cc1F [Compound I-300, N-{6-chloro-2′-[(5-cyanopyrimidin-2-yl)amino]-4-methyl-3,4′-bipyridin-5-yl}-2,4-difluorobenzene sulfonamide]	96%
Cc1ncc(-c2ccnc(Nc3ccn(C)n3)c2)cc1NS(=O)(=O)c1ccc(F)cc1F [Compound I-301, 2,4-difluoro-N-{6-methyl-2′-[(1-methyl-1H-pyrazol-3-yl)amino]-3,4′-bipyridin-5-yl}benzenesulfonamide]	96%
CCN(CC)C(=O)c1cc(-c2ccnc(Nc3ccnc(C)n3)c2)cnc1C [Compound I-302, N,N-diethyl-6-methyl-2′-[(2-methylpyrimidin-4-yl)amino]-3,4′-bipyridine-5-carboxamide]	83%
CN(C(=O)c1cc(-c2ccnc(Nc3ccncn3)c2)cnc1N)C12CC(C1)C2 [Compound I-303, 6-amino-N-(bicyclo[1.1.1]pent-1-yl)-N-methyl-2′-(pyrimidin-4-ylamino)-3,4′-bipyridine-5-carboxamide]	95%
Cc1nccc(Nc2cc(-c3cnc(C)c(C(=O)N4CCC4)c3)ccn2)n1 [Compound I-304, Azetidin-1-yl(6-methyl-2′-((2-methylpyrimidin-4-yl)amino)-3,4′-bipyridin-5-yl)methanone]	96%
Cc1ncc(-c2ccnc(NC(=O)C3CCC3)c2)cc1NS(=O)(=O)c1ccc(F)cc1F [Compound I-305, N-(5-{[(2,4-difluorophenyl)sulfonyl]amino}-6-methyl-3,4′-bipyridin-2′-yl)cyclobutanecarboxamide]	94%
Cc1nccc(Nc2cc(-c3cnc(N(C)C)c(C(=O)N(C)C45CC(C4)C5)c3)ccn2)n1 [Compound I-306, N-(bicyclo[1.1.1]pent-1-yl)-6-(dimethylamino)-N-methyl-2′-((2-methylpyrimidin-4-yl)amino)-3,4′-bipyridine-5-carboxamide]	> 99%
Cc1ccc(Nc2cc(-c3cnc(C)c(NS(=O)(=O)c4ccc(F)cc4F)c3)ccn2)nn1 [Compound I-307, 2,4-difluoro-N-{6-methyl-2′-[(6-methylpyridazin-3-yl)amino]-3,4′-bipyridin-5-yl}benzenesulfonamide]	> 99%
Cc1c(-c2ccnc(Nc3ccncn3)c2)cnc(Cl)c1NS(=O)(=O)c1ccccc1 [Compound I-309, N-[6-chloro-4-methyl-2′-(pyrimidin-4-ylamino)-3,4′-bipyridin-5-yl]benzenesulfonamide]	99%
Cc1ncc(-c2ccnc(Nc3cnccn3)c2)cc1NS(=O)(=O)c1ccc(F)cc1F [Compound I-310, 2,4-difluoro-N-[6-methyl-2′-(pyrazin-2-ylamino)-3,4′-bipyridin-5-yl]benzenesulfonamide]	> 99%
Cc1ncc(-c2ccnc(NC(=O)C3CC3)c2)cc1NS(=O)(=O)N(C)C [Compound I-311, N-{5-[(dimethylsulfamoyl)amino]-6-methyl-3,4′-bipyridin-2′-yl}cyclopropanecarboxamide]	> 99%
CC(=O)Nc1cc(-c2cnc(Cl)c(NS(=O)(=O)c3ccccc3)c2C)ccn1 [Compound I-312, N-{6-chloro-4-methyl-5-[(phenylsulfonyl)amino]-3,4′-bipyridin-2′-yl}acetamide]	> 99%
Cc1ncc(-c2ccnc(NC(=O)N3CCCC3)c2)cc1NS(=O)(=O)c1ccc(F)cc1F [Compound I-313, N-(5-{[(2,4-difluorophenyl)sulfonyl]amino}-6-methyl-3,4′-bipyridin-2′-yl)pyrrolidine-1-carboxamide]	88%
Cc1nccc(Nc2cc(-c3cnc(Cl)c(N(C)C)c3C)ccn2)n1 [Compound I-314, 6-chloro-N5,N5,4-trimethyl-N2′-(2-methylpyrimidin-4-yl)-3,4′-bipyridine-2′,5-diamine]	91%
Cc1nccc(Nc2cc(-c3cnc(C)c(C(=O)N4CCCC4)c3)ccn2)n1 [Compound I-315, {6-methyl-2′-[(2-methylpyrimidin-4-yl)amino]-3,4′-bipyridin-5-yl}(pyrrolidin-1-yl)methanone]	92%
